Measurements published in US11497819B2, “PSMA ligands for imaging and endoradiotherapy” (priority 2017, dated 2022).
Where “and” joins values, the source holds several entries; their conditions need not be identical. Equal entries are not always repeated. Blank lines part the entries; values can stand above or below the compound they belong to.

Tests used:
LNCaP cells [1] = test: Internalization into LNCaP cells, relative cellular uptake to ([^125I]I-BA)KuE; type: cell-based; details: c = 1.0 nM ^177Lu-labeled inhibitor, 37° C., 60 min, corrected for non-specific binding (10 μM 2-PMPA), mean ± SD (n = 3)
Procedure: PSMA-positive LNCAP cells (300265; Cell Lines Service GmbH) were cultivated in Dulbecco modified Eagle medium/Nutrition Mixture F-12 (1/1) (DMEM-F12, Biochrom) supplemented with fetal calf serum (FCS) (10%, Biochrom) and kept at 37° C. in a humidified CO2 atmosphere (5%). One day (24 h±2 h) prior to all experiments with LNCaP cells, the cultivated cells were harvested using a mixture of trypsin/ethylendiaminetetraacetate (0.05%/0.02%) and PBS and centrifuged. After centrifugation, the supernatant was disposed and the cell pellet resuspended in culture medium. Afterwards, cells were counted with a hemocytometer (Neubauer) and seeded in 24-well plates.
Subsequent to the removal of the culture medium, the cells were washed once with DMEM-F12-solution (500 μL, 5% BSA) and left to equilibrate for at least 15 min at 37° C. in DMEM-F12-solution (200 μL, 5% BSA). Afterwards, each well was treated with either DMEM-F12-solution (25 μL, 5% BSA) or 2-PMPA-solution (25 μL, 100 μm) for blockade. […] The experiment was terminated by placing the 24-well plate on ice for 3 min and the consecutive removal of the medium. Each well was rinsed with HBSS (250 μL) and the fractions from these first two steps combined, representing the amount of free radioligand. Removal of surface bound activity was accomplished by incubation of the cells with ice-cold 2-PMPA-solution (250 μL, 10 μm in PBS) for 5 min and subsequent rinsing with ice-cold PBS (250 μL). The internalized activity was determined through incubation of the cells in NaOH (250 μL, 1.0 m) and the combination with the fraction of the subsequent washing step with again NaOH (250 μL, 1.0 m). Each experiment (control and blockade) was performed in triplicate for each time point. Free, surface bound and internalized activity was quantified in a γ-counter.

LNCaP cells [2] = test: Externalization kinetics / cell retention in LNCaP cells; type: cell-based
Procedure: FIG. 2: Externalization kinetics of selected ^177Lu-labeled PSMA inhibitors from LNCaP cells. […] Then, the supernatant was removed and once washed with DMEM-solution (5% BSA, 37° C.). Afterwards, either A) only DMEM-solution (5% BSA) or B) blockade DMEM-solution (5% BSA, 10 μm 2-PMPA) were added for replacement. The total cellular internalized activity at t=0 min was corrected for non-specific binding (10 μm 2-PMPA) and normalized to 100%. All data are expressed as mean±SD (n=3).
Externalization kinetics of the radiolabeled PSMA inhibitors were determined using LNCaP cells, which were similarly prepared as described for the internalization assay. After an initial cell-washing step with DMEM-F12-solution (5% BSA), the cells were left to recondition for at least 15 min at 37° C. Subsequently, the LNCaP cells were incubated with the respective radiolabeled peptide (25 μL, 10.0 nm) at 37° C. for 60 min in a total volume of 250 μL in each well. After 60 min, the supernatant with the unbound free fraction was removed and measured in a γ-counter for the calculation of total added radioactivity. An acid wash step was avoided to warrant enzyme integrity during the following externalization and recycling study. To determine the recycling rate, fresh DMEM-F12-solution (250 μL, 5% BSA) was given to the cells to allow re-internalization. In contrast, re-internalization was inhibited by addition of DMEM-F12-solution containing 2-PMPA (225 μL DMEM-F12 (5% BSA) and 25 μL of 100 μm 2-PMPA-solution (PBS)). The cells were then incubated for 0, 20, 40 and 60 min at 37° C. Consequently, the supernatant was removed and the cells were washed with ice-cold HBSS (250 μL). The combination of the supernatant and the volume of the concomitant washing step with HBSS (200 μL) account for externalized radioligand at the investigated time point. Further, the cells were then washed with ice-cold 2-PMPA HBSS solution (250 μL, 10 μm) twice, combined and thus represented the fraction of membrane-bound radioligand. The determination of the internalized fraction was achieved by lysis as described for the internalization assay with NaOH (250 μL, 1.0 m). The activities of free, externalized, membrane-bound and internalized radioligand were quantified in a γ-counter.

[3] = Lipophilicity, logP in n-octanol/PBS of radiolabeled PSMA inhibitors; type: physicochemical; details: pH 7.4
Procedure: The radiolabeled PSMA inhibitor (0.5 to 1.0 MBq) dissolved in PBS (500 μL, pH=7.4), was added to n-octanol (500 μL) in a reaction vial (1.5 mL), which was rigorously vortexed for 3 min (n=6). For quantitative phase separation, the mixture was centrifuged at 6,000 g for 5 min (Biofuge 15, Heraus Sepatech, Osterode, Germany). The activity from samples of each phase (100 μL) were measured in a γ-counter to obtain the log P(o/w) value.

LNCaP-tumor xenograft = test: Biodistribution in LNCaP-tumor xenograft bearing CB-17 SCID mice; type: in vivo; details: male, CB-17 SCID, mouse, in vivo
Procedure: (§1) All animal experiments were carried out in accordance with the general animal welfare regulations in Germany (Deutsches Tierschutzgesetz, approval #55.2-1-54-2532-71-13). For the tumor model, LNCaP cells (approx. 10^7 cells) were suspended in serum-free DMEM-F12 medium and Matrigel (1/1; v/v) (BD Biosciences, Germany) and inoculated onto the right shoulder of male, 6 to 8 weeks old CB-17 SCID mice (Charles River Laboratories, Sulzfeld, Germany). Animals were used after the tumor size reached 4 to 8 mm in diameter for experiments.

HSA = target: T1, HSA (Homo sapiens, UniProt P02768); test: HSA binding on Chiralpak HSA column; type: in vitro ADME
T1 construct: purchased Daicel Chemical Industries / Chiral Technologies Europe (Illkirch, France)
T1 sequence (P02768 25-609): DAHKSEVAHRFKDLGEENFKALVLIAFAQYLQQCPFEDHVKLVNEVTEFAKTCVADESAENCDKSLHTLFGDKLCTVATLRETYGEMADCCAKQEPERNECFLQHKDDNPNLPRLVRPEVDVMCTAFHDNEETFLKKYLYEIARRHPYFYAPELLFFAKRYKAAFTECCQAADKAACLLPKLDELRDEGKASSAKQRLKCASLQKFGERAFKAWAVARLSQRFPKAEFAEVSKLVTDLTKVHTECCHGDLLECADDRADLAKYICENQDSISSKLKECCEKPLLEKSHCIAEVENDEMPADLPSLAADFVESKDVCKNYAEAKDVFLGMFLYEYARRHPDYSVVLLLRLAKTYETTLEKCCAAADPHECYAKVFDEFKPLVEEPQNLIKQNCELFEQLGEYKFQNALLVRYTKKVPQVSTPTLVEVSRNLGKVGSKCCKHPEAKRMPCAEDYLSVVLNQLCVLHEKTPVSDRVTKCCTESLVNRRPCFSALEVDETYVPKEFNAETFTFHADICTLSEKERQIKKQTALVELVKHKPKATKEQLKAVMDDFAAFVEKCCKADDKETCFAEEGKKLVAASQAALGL
Procedure: HSA binding experiments were performed as previously described. […] For each run, 10 μL of the solution containing the inhibitor was injected into the RP-HPLC system and the retention time measured. […] Non-linear regression was established with OriginPro 2016G.

PSMA = target: T2, PSMA (Homo sapiens, UniProt Q04609); test: Competitive binding assay (IC50) on LNCaP cells with ([^125I]I-BA)KuE as radioligand; details: LNCaP cells 1.5*10^5 cells/well, 1 h, 4° C., HBSS + 1% BSA, radioligand ([^125I]I-BA)KuE; mean ± SD (n = 3)
T2 construct: host or cells: LNCaP cells
T2 sequence (Q04609 whole entry): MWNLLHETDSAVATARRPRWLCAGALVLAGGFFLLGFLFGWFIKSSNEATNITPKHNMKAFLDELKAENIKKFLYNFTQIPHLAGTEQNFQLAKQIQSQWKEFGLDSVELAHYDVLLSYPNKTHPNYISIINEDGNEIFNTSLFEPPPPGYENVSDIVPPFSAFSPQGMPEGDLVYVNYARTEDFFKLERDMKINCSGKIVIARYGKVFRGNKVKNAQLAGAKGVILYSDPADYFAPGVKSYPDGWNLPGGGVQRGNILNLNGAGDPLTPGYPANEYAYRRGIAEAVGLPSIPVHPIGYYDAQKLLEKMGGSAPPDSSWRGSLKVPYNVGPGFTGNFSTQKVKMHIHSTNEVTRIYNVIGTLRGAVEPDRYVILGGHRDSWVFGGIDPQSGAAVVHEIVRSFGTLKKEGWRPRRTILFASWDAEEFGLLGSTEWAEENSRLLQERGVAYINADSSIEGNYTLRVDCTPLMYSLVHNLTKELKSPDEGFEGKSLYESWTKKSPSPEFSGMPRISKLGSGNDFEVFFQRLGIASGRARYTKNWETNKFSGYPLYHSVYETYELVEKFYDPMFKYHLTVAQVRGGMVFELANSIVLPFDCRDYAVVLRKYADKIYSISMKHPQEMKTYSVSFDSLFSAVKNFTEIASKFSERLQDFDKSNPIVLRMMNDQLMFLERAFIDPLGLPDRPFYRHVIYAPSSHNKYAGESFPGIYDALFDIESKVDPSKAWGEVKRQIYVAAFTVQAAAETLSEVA
Procedure: One day (24 h±2 h) prior to all experiments with LNCaP cells, the cultivated cells were harvested using a mixture of trypsin/ethylendiaminetetraacetate (0.05%/0.02%) and PBS and centrifuged. After centrifugation, the supernatant was disposed and the cell pellet resuspended in culture medium. Afterwards, cells were counted with a hemocytometer (Neubauer) and seeded in 24-well plates.
After removal of the culture medium, the cells were treated once with HBSS (500 μL, Hank's balanced salt solution, Biochrom, Berlin, Germany, with addition of 1% BSA) and left 15 min on ice for equilibration in HBSS (200 μL, 1% BSA). […] All experiments were performed at least three times for each concentration. After 60 min incubation on ice, the experiment was terminated by removal of the medium and consecutive rinsing with HBSS (200 μL). The media of both steps were combined in one fraction and represent the amount of free radioligand. Afterwards, the cells were lysed with NaOH (250 μL, 1.0 m) and united with the HBSS (200 μL) of the following washing step. Quantification of bound and free radioligand was accomplished in a γ-counter.

LNCaP-tumor = test system: LNCaP-tumor; parameters: species or system CB-17 SCID mice; details: male, CB-17 SCID, mouse, in vivo, 85 min
Procedure: as §1
Imaging experiments were conducted using a Siemens Inveon small animal PET and the data analyzed by the associated Inveon Research Workplace software. Mice were anaesthetized with isoflurane and approx. 4.0 to 17 MBq of the ^68Ga-labeled compounds were injected via tail vein (approx. 150 to 300 μL). Dynamic imaging was carried out after on-bed injection for 90 min. The static blockade image was obtained after 1 h p.i. with 15 min acquisition time. PSMA-blockade was achieved by coinjection of 8 mg/kg of 2-PMPA-solution (PBS). All images were reconstructed using an OSEM3D algorithm without […] and attenuation correction.

[4] = after logarithmic plotting and calibration (n = 1)

logP [3]: -4.25 ± 0.14
adrenal gland (LNCaP-tumor xenograft; 1 h): 0.78 ± 0.07 % ID/g
blood (LNCaP-tumor xenograft; 1 h): 0.50 ± 0.03 % ID/g
bone (LNCaP-tumor xenograft; 1 h): 0.37 ± 0.13 % ID/g
brain (LNCaP-tumor xenograft; 1 h): 0.02 ± 0.01 % ID/g
heart (LNCaP-tumor xenograft; 1 h): 0.49 ± 0.06 % ID/g
intestine (LNCaP-tumor xenograft; 1 h): 0.21 ± 0.03 % ID/g
liver (LNCaP-tumor xenograft; 1 h): 0.32 ± 0.02 % ID/g
lung (LNCaP-tumor xenograft; 1 h): 0.62 ± 0.12 % ID/g
muscle (LNCaP-tumor xenograft; 1 h): 0.19 ± 0.07 % ID/g
pancreas (LNCaP-tumor xenograft; 1 h): 0.15 ± 0.04 % ID/g
spleen (LNCaP-tumor xenograft; 1 h): 1.93 ± 0.04 % ID/g
stomach (LNCaP-tumor xenograft; 1 h): 0.28 ± 0.04 % ID/g
tumor/blood (LNCaP-tumor xenograft; 1 h): 20.0
tumor/kidney (LNCaP-tumor xenograft; 1 h): 0.09
tumor/muscle (LNCaP-tumor xenograft; 1 h): 52.6
adrenal g. (LNCaP-tumor xenograft; 24 h): 0.09 ± 0.09 % ID/g
blood (LNCaP-tumor xenograft; 24 h): 0.003 ± 0.001 % ID/g
bone (LNCaP-tumor xenograft; 24 h): 0.02 ± 0.01 % ID/g
brain (LNCaP-tumor xenograft; 24 h): 0.01 ± 0.001 % ID/g
heart (LNCaP-tumor xenograft; 24 h): 0.03 ± 0.007 % ID/g
intestine (LNCaP-tumor xenograft; 24 h): 0.11 ± 0.07 % ID/g
kidney (LNCaP-tumor xenograft; 24 h): 20.92 ± 2.51 % ID/g
liver (LNCaP-tumor xenograft; 24 h): 0.14 ± 0.02 % ID/g
lung (LNCaP-tumor xenograft; 24 h): 0.03 ± 0.007 % ID/g
muscle (LNCaP-tumor xenograft; 24 h): 0.02 ± 0.006 % ID/g
pancreas (LNCaP-tumor xenograft; 24 h): 0.02 ± 0.007 % ID/g
spleen (LNCaP-tumor xenograft; 24 h): 0.09 ± 0.02 % ID/g
stomach (LNCaP-tumor xenograft; 24 h): 0.07 ± 0.03 % ID/g
t/blood (LNCaP-tumor xenograft; 24 h): 1910.0
t/kidney (LNCaP-tumor xenograft; 24 h): 0.3
t/liver (LNCaP-tumor xenograft; 24 h): 40.9
t/muscle (LNCaP-tumor xenograft; 24 h): 286.5
HSA (albumin binding) (HSA; human, 0.5 mg/mL): 64.4%
Structure (SMILES): O=C(O)CC[C@H](NC(=O)N[C@@H](CCC(=O)N[C@H](CCCNC(=O)C[C@@H](NC(=O)c1cc(C(=O)O)cc(C(=O)O)c1)C(=O)NCCCC[C@@H](NC(=O)[C@@H](Cc1ccc2ccccc2c1)NC(=O)[C@@H](Cc1ccc(O)cc1)NC(=O)[C@H](CNC(=O)c1cc(C(=O)O)cc(C(=O)O)c1)NC(=O)CCC(C(=O)O)N1CCN(CC(=O)O)CCN(CC(=O)O)CCN(CC(=O)O)CC1)C(=O)O)C(=O)O)C(=O)O)C(=O)O (stereo partly drawn) [PSMA-66, DOTAGA-Dap(TMA)y-2-nal-k(d[N^5-orn-C^4-EuE]-TMA)]
Internalization (LNCaP cells [1]; listed as [^177Lu]PSMA-66): 297.8±2.0% and 297.8%
Internalization (LNCaP cells [1]; listed as [^nat/177Lu]PSMA-66): 297.8 ± 2.0%
in vitro tumor cell retention (LNCaP cells [2]; 60 min incubation, ^177Lu-labeled): 90.1±3.5%
intracellular activity in the tumor cells (LNCaP cells [2]; after 1 h, ^177Lu-labeled): highest intracellular activity in the tumor cells after 1 h
intracellular clearance (LNCaP cells [2]; re-internalization blocked with 100 μM 2-PMPA-solution): lower than for all other investigated compounds

Structure (SMILES): O=C(O)CC[C@H](NC(=O)N[C@@H](CCCCNC(=O)[C@H](Cc1ccc2ccccc2c1)NC(=O)[C@H]1CC[C@H](CNC(=O)CN2CCN(CC(=O)O)CCN(CC(=O)O)CCN(CC(=O)O)CC2)CC1)C(=O)O)C(=O)O [PSMA-617, reference compound]
Internalization (LNCaP cells [1]): 160.1 ± 1.5%
IC50 (PSMA): 3.8 ± 1.7 nM
HSA (albumin binding) (HSA; [4]): 74.7%

Structure (SMILES): O=C(O)CC[C@H](NC(=O)N[C@@H](CCCCNC(=O)CCCCC[C@H](NC(=O)c1ccc([N+](=O)[O-])cc1[N+](=O)[O-])C(=O)NCCCC[C@@H](NC(=O)[C@@H](Cc1ccccc1)NC(=O)[C@@H](Cc1ccc(O)c(I)c1)NC(=O)CCC(C(=O)O)N1CCN(CC(=O)O)CCN(CC(=O)O)CCN(CC(=O)O)CC1)C(=O)O)C(=O)O)C(=O)O (stereo partly drawn) [PSMA-36, DOTAGA-y(3-I)fk(L-Asu[KuE]-2,4-DNBA)]
Internalization (LNCaP cells [1]): 189.8 ± 37.5%
tumor uptake (PET) (LNCaP-tumor): 3.5 % ID/mL
HSA (albumin binding) (HSA; [4]): 82.5%
